In patent publication US20090118332A1, “Therapeutic Agents - 551” (AstraZeneca AB, priority 2006, published 2009):

The compounds below were run against T1, human Fatty Acid Synthase (Homo sapiens, UniProt P49327) (assay: Human FAS enzyme assay (decrease in NADPH fluorescence)). Conditions: % inhibition at a concentration of 100 μmolar.
T1 construct: made in house
Assay type: biochemical
Method in brief: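 In-house human FAS was preincubated with compound and NADPH for 15 min at room temperature in 0.1 M Tris pH 7.5 with EDTA, glutathione and BSA. Malonyl CoA and acetyl CoA (500 μM and 150 μM in the added mix) were then added for 60 min. IC50 came from time-zero-subtracted NADPH fluorescence (340/460 nm).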

T1 sequence (P49327 whole entry): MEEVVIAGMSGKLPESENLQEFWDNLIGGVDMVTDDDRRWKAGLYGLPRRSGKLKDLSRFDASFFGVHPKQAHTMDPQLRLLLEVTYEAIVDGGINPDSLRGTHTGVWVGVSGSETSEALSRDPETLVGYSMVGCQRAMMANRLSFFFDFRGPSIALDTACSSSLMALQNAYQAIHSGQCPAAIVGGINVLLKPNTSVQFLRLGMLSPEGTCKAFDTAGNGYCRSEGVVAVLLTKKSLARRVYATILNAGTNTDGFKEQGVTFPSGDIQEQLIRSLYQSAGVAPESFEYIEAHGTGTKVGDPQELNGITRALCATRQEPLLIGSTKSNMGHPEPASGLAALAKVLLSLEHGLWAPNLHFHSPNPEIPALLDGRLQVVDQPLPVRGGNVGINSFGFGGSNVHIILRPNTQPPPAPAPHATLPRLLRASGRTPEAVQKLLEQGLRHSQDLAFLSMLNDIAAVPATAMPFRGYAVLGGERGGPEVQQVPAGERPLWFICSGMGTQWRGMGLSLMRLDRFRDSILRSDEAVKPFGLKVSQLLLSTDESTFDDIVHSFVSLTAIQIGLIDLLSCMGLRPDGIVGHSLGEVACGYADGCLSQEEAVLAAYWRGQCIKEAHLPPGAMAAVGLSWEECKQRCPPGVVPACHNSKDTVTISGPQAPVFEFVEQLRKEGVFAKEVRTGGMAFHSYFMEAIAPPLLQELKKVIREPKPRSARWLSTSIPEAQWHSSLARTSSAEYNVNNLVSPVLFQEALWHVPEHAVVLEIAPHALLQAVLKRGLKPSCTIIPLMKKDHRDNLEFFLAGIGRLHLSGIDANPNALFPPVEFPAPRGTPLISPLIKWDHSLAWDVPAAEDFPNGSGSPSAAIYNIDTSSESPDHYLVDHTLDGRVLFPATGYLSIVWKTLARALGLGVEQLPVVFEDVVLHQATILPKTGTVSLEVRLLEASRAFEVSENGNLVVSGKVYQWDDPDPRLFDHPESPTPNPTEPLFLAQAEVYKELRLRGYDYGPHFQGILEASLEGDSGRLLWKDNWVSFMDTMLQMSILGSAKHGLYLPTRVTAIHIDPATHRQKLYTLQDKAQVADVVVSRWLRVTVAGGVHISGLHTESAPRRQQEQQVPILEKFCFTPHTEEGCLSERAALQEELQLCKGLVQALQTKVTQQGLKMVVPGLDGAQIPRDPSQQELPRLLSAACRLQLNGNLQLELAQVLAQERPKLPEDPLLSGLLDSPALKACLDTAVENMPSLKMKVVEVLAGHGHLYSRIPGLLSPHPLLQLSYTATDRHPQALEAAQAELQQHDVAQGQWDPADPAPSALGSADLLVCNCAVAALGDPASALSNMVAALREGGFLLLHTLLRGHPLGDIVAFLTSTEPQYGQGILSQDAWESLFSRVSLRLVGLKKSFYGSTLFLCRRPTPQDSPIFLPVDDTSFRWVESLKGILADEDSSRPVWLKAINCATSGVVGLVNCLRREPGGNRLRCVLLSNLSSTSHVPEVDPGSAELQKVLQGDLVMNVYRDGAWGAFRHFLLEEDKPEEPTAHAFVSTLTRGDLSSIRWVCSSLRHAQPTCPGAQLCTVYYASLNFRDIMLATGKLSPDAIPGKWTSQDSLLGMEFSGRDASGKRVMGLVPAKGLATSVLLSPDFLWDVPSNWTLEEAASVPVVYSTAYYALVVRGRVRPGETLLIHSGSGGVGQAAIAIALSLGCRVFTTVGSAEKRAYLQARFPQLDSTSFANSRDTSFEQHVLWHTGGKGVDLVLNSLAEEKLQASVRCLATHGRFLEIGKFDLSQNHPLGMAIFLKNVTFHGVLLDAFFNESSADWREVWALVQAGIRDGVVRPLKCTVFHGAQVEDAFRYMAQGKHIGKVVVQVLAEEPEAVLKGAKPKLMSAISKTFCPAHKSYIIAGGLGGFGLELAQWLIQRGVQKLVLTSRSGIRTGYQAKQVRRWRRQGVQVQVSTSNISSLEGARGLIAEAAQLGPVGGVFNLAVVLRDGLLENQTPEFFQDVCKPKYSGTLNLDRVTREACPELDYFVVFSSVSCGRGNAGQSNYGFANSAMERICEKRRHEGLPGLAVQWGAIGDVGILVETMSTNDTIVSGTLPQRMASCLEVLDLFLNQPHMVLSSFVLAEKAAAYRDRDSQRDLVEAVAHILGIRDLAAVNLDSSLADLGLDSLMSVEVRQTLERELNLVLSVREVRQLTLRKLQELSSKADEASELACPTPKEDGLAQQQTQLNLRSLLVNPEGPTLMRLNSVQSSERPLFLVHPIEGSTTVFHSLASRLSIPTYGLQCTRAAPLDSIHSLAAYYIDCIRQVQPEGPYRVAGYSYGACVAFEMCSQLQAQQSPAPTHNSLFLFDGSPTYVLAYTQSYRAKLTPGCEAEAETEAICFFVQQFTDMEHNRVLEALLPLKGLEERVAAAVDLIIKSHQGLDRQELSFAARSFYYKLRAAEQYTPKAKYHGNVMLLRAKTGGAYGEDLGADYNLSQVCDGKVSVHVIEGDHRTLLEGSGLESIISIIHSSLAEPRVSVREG

inhibition at 100 µM [%]	SMILES
84.5	Cc1ccc(C(=O)N2CCC(c3ccc(C#N)cc3)CC2)cc1NC(=O)NCCNC(=O)c1cccs1 [Example 117, N-[2-[[5-[4-(4-cyanophenyl)piperidine-1-carbonyl]-2-methyl-phenyl]carbamoylamino]ethyl]thiophene-2-carboxamide]
96.2	Cc1ccc(C(=O)N2CCC(c3ccc(C#N)cc3)CC2)cc1NC(=O)NCCNC(=O)c1cccn1C [Example 118, N-[2-[[5-[4-(4-cyanophenyl)piperidine-1-carbonyl]-2-methyl-phenyl]carbamoylamino]ethyl]-1-methyl-pyrrole-2-carboxamide]
89.2	Cc1ccc(C(=O)N2CCC(c3ccc(C#N)cc3)CC2)cc1NC(=O)NCCNC(=O)c1cnoc1C [Example 119, N-[2-[[5-[4-(4-cyanophenyl)piperidine-1-carbonyl]-2-methyl-phenyl]carbamoylamino]ethyl]-5-methyl-1,2-oxazole-4-carboxamide]
68.3	CC(=O)N(C)CCNC(=O)Nc1cc(C(=O)N2CCC(c3ccc(C#N)cc3)CC2)ccc1C [Example 120, N-[2-[[5-[4-(4-cyanophenyl)piperidine-1-carbonyl]-2-methyl-phenyl]carbamoylamino]ethyl]-N-methyl-acetamide]
86	Cc1ccc(C(=O)N2CCC(c3ccc(C#N)cc3)CC2)cc1NC(=O)NCCN(C)S(C)(=O)=O [Example 121, 1-[5-[4-(4-cyanophenyl)piperidine-1-carbonyl]-2-methyl-phenyl]-3-[2-(methyl-methylsulfonyl-amino)ethyl]urea]
96.1	Cc1ccc(C(=O)N2CCC(c3ccc(C#N)cc3)CC2)cc1NC(=O)NCCNS(=O)(=O)C(C)C [Example 122, 1-[5-[4-(4-cyanophenyl)piperidine-1-carbonyl]-2-methyl-phenyl]-3-[2-(propan-2-ylsulfonylamino)ethyl]urea]
79.7	Cc1ccc(C(=O)N2CCC(c3ccc(C(=O)N(C)C)cc3)CC2)cc1NC(=O)NCc1ccccc1 [Example 123, 4-[1-[3-(benzylcarbamoylamino)-4-methyl-benzoyl]-4-piperidyl]-N,N-dimethyl-benzamide]
78	Cc1ccc(C(=O)N2CCC(c3ccc(C(=O)N(C)C)cc3)CC2)cc1NC(=O)NC(C)C [Example 124, N,N-dimethyl-4-[1-[4-methyl-3-(propan-2-ylcarbamoylamino)benzoyl]-4-piperidyl]benzamide]
91.7	Cc1ccc(C(=O)N2CCC(c3ccc(C#N)cc3)CC2)cc1NC(=O)NCCC(=O)O [Example 125, 3-[[5-[4-(4-cyanophenyl)piperidine-1-carbonyl]-2-methyl-phenyl]carbamoylamino]propanoic acid]
87.4	Cc1ccc(C(=O)N2CCC(c3ccc(C#N)cc3)CC2)cc1NC(=O)NCCC(N)=O [Example 126, 3-[[5-[4-(4-cyanophenyl)piperidine-1-carbonyl]-2-methyl-phenyl]carbamoylamino]propanamide]
93	Cc1ccc(C(=O)N2CCC(c3ccc(C#N)cc3)CC2)cc1NC(=O)NCCC(=O)N1CCOCC1 [Example 127, 1-[5-[4-(4-cyanophenyl)piperidine-1-carbonyl]-2-methyl-phenyl]-3-(3-morpholin-4-yl-3-oxo-propyl)urea]
87.5	COCCNC(=O)CCNC(=O)Nc1cc(C(=O)N2CCC(c3ccc(C#N)cc3)CC2)ccc1C [Example 128, 3-[[5-[4-(4-cyanophenyl)piperidine-1-carbonyl]-2-methyl-phenyl]carbamoylamino]-N-(2-methoxyethyl)propanamide]
99.1	Cc1ccc(C(=O)N2CCC(c3ccc(C#N)cc3)CC2)cc1NC(=O)NCCC(=O)NC(C)C [Example 129, 3-[[5-[4-(4-cyanophenyl)piperidine-1-carbonyl]-2-methyl-phenyl]carbamoylamino]-N-propan-2-yl-propanamide]
90.5	Cc1ccc(C(=O)N2CCC(c3ccc(C#N)cc3)CC2)cc1NC(=O)NCCC(=O)N(C)C [Example 130, 3-[[5-[4-(4-cyanophenyl)piperidine-1-carbonyl]-2-methyl-phenyl]carbamoylamino]-N,N-dimethyl-propanamide]
89.8	Cc1ccc(C(=O)N2CCC(c3ccc(C#N)cc3)CC2)cc1NC(=O)NCCCN1CCCC1=O [Example 131, 1-[5-[4-(4-cyanophenyl)piperidine-1-carbonyl]-2-methyl-phenyl]-3-[3-(2-oxopyrrolidin-1-yl)propyl]urea]
89.5	CCOC(=O)N1CCC(NC(=O)Nc2cc(C(=O)N3CCC(c4ccc(C#N)cc4)CC3)ccc2C)CC1 [Example 132, ethyl 4-[[5-[4-(4-cyanophenyl)piperidine-1-carbonyl]-2-methyl-phenyl]carbamoylamino]piperidine-1-carboxylate]
81.2	Cc1ccc(C(=O)N2CCC(c3ccc(C#N)cc3)CC2)cc1NC(=O)NC1CCCCNC1=O (stereo not shown) [Example 133, 1-[5-[4-(4-cyanophenyl)piperidine-1-carbonyl]-2-methyl-phenyl]-3-(2-oxoazepan-3-yl)urea]

inhibition at 100 µM [%]	SMILES
84.6	Cc1ccc(C(=O)N2CCC(c3ccc(C#N)cc3)CC2)cc1NC(=O)NC1CCCC[C@@H]1C(N)=O (stereo partly drawn) [Example 134, (1S)-2-[[5-[4-(4-cyanophenyl)piperidine-1-carbonyl]-2-methyl-phenyl]carbamoylamino]cyclohexane-1-carboxamide]
81.1	Cc1ccc(C(=O)N2CCC(c3ccc(C#N)cc3)CC2)cc1NC(=O)NCCN1CCNC1=O [Example 135, 1-[5-[4-(4-cyanophenyl)piperidine-1-carbonyl]-2-methyl-phenyl]-3-[2-(2-oxoimidazolidin-1-yl)ethyl]urea]
80.9	Cc1ccc(C(=O)N2CCC(c3ccc(C#N)cc3)CC2)cc1NC(=O)NCc1cc(=O)[nH]o1 [Example 136, 1-[5-[4-(4-cyanophenyl)piperidine-1-carbonyl]-2-methyl-phenyl]-3-[(3-oxo-1,2-oxazol-5-yl)methyl]urea]
87.9	Cc1ccc(C(=O)N2CCC(c3ccc(C#N)cc3)CC2)cc1NC(=O)NCCN1CCCC1 [Example 137, 1-[5-[4-(4-cyanophenyl)piperidine-1-carbonyl]-2-methyl-phenyl]-3-(2-pyrrolidin-1-ylethyl)urea]
83.7	Cc1ccc(C(=O)N2CCC(c3ccc(C#N)cc3)CC2)cc1NC(=O)NCCCN(C)C [Example 138, 1-[5-[4-(4-cyanophenyl)piperidine-1-carbonyl]-2-methyl-phenyl]-3-(3-dimethylaminopropyl)urea]
87	Cc1ccc(C(=O)N2CCC(c3ccc(C#N)cc3)CC2)cc1NC(=O)NCCc1c[nH]cn1 [Example 139, 1-[5-[4-(4-cyanophenyl)piperidine-1-carbonyl]-2-methyl-phenyl]-3-[2-(1H-imidazol-4-yl)ethyl]urea]
79.2	Cc1ccc(C(=O)N2CCC(c3ccc(C#N)cc3)CC2)cc1NC(=O)NCCCN1CCN(C)CC1 [Example 140, 1-[5-[4-(4-cyanophenyl)piperidine-1-carbonyl]-2-methyl-phenyl]-3-[3-(4-methylpiperazin-1-yl)propyl]urea]
82.1	Cc1ccc(C(=O)N2CCC(c3ccc(C#N)cc3)CC2)cc1NC(=O)NCCCN(CCO)CCO [Example 141, 3-[3-(bis(2-hydroxyethyl)amino)propyl]-1-[5-[4-(4-cyanophenyl)piperidine-1-carbonyl]-2-methyl-phenyl]urea]
80.3	Cc1ccc(C(=O)N2CCC(c3ccc(C#N)cc3)CC2)cc1NC(=O)NCCCCN(C)C [Example 142, 1-[5-[4-(4-cyanophenyl)piperidine-1-carbonyl]-2-methyl-phenyl]-3-(4-dimethylaminobutyl)urea]
81.7	Cc1ccc(C(=O)N2CCC(c3ccc(C#N)cc3)CC2)cc1NC(=O)NCCC1CCCN1C (stereo not shown) [Example 144, 1-[5-[4-(4-cyanophenyl)piperidine-1-carbonyl]-2-methyl-phenyl]-3-[2-(1-methylpyrrolidin-2-yl)ethyl]urea]
79.3	Cc1ccc(C(=O)N2CCC(c3ccc(C#N)cc3)CC2)cc1NC(=O)NCCN(C)C [Example 145, 1-[5-[4-(4-cyanophenyl)piperidine-1-carbonyl]-2-methyl-phenyl]-3-(2-dimethylaminoethyl)urea]
89.7	Cc1ccc(C(=O)N2CCC(c3ccc(C#N)cc3)CC2)cc1NC(=O)NCCCN1CCOCC1 [Example 146, 1-[5-[4-(4-cyanophenyl)piperidine-1-carbonyl]-2-methyl-phenyl]-3-(3-morpholin-4-ylpropyl)urea]
79.5	COCCN1CCC(NC(=O)Nc2cc(C(=O)N3CCC(c4ccc(C#N)cc4)CC3)ccc2C)CC1 [Example 147, 1-[5-[4-(4-cyanophenyl)piperidine-1-carbonyl]-2-methyl-phenyl]-3-[1-(2-methoxyethyl)-4-piperidyl]urea]
79.5	Cc1ccc(C(=O)N2CCC(c3ccc(C#N)cc3)CC2)cc1NC(=O)NC1CCN(C)CC1 [Example 148, 1-[5-[4-(4-cyanophenyl)piperidine-1-carbonyl]-2-methyl-phenyl]-3-(1-methyl-4-piperidyl)urea]
80.2	CCN1CCC[C@H]1CNC(=O)Nc1cc(C(=O)N2CCC(c3ccc(C#N)cc3)CC2)ccc1C [Example 149, 3-[5-[4-(4-cyanophenyl)piperidine-1-carbonyl]-2-methyl-phenyl]-1-[[(2S)-1-ethylpyrrolidin-2-yl]methyl]urea]
85	Cc1ccc(C(=O)N2CCC(c3ccc(C#N)cc3)CC2)cc1NC(=O)NCc1cncn1C [Example 150, 1-[5-[4-(4-cyanophenyl)piperidine-1-carbonyl]-2-methyl-phenyl]-3-[(3-methylimidazol-4-yl)methyl]urea]

SMILES	inhibition at 100 µM [%]
Cc1ccc(C(=O)N2CCC(c3ccc(C#N)cc3)CC2)cc1NC(=O)NC1CN2CCC1CC2 (stereo not shown) [Example 143, 3-(1-azabicyclo[2.2.2]oct-8-yl)-1-[5-[4-(4-cyanophenyl)piperidine-1-carbonyl]-2-methyl-phenyl]urea]	84.4
